According to publication PMC4423559 (Angewandte Chemie (International ed. in English), 2015):

Molecular target: T1, GTP/GDP carrier (GGC) from yeast mitochondria (Saccharomyces cerevisiae, UniProt P38988)
T1 sequence (P38988 1-300): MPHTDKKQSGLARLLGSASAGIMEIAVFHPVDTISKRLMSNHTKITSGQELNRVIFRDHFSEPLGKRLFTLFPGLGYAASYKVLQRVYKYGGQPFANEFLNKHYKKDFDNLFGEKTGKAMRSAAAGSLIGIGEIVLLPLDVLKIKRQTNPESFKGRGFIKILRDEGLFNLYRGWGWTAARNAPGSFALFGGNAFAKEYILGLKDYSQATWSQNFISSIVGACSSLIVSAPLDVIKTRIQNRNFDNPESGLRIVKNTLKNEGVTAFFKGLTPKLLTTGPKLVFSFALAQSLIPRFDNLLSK
Assay: NMR chemical shift perturbation titration, 3D TROSY HNCO
Assay type: binding

Row | Compound | Kd [mM]
1 | Nc1nc2c(ncn2[C@@H]2O[C@H](COP(=O)(O)OP(=O)(O)OP(=O)(O)O)[C@@H](O)[C@H]2O)c(=O)[nH]1 [GTP] | 6.6
2 | Nc1nc2c(ncn2[C@@H]2O[C@H](COP(=O)(O)OP(=O)(O)O)[C@@H](O)[C@H]2O)c(=O)[nH]1 [GDP] | 23
